Data from patent US8383822B2, “Substituted oxazolidinones and their use” (Bayer Intellectual Property GmbH, priority 2007, dated 2013).

Columns and labels:
[1] = target: thrombin (Homo sapiens, UniProt P00734); experiment: Thrombin-inhibitory activity in plasma samples (ecarin, fluorogenic thrombin substrate); type: biochemical; details: thrombin inhibition in citrate plasma (Octapharma), ecarin-stimulated, read at about 12 min
Protocol: a.5) Determination of the Thrombin-inhibitory Activity of the Potential Inhibitors in Plasma Samples
Various concentrations of the substances to be tested are dissolved in dimethyl sulphoxide and diluted with water.

[2] = target: T1, factor Xa (Homo sapiens, UniProt P00742); experiment: biochemical; details: factor Xa inhibition in citrate plasma (Octapharma), factor X activated by Russel viper venom, ChromozymX substrate, read at about 12 min
T1 construct: tissue Octapharma; host or cells: citrate plasma
T1 sequence (P00742 235-488 limits assumed): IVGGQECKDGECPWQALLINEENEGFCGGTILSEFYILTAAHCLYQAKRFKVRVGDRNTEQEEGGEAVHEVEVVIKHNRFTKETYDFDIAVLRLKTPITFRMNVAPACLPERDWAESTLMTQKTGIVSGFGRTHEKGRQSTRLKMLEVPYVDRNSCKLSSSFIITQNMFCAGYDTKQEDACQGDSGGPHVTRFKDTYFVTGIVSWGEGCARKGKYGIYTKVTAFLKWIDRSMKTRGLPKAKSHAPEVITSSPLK
T1 sequence (P00742 41-179 limits assumed): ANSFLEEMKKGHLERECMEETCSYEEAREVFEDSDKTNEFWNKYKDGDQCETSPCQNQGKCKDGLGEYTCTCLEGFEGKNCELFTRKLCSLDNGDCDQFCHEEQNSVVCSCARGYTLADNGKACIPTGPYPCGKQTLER
Protocol: a.4) Determination of the Factor Xa-inhibitory Activity of the Potential Inhibitors in Plasma Samples
To determine the inhibition of factor Xa in plasma samples, the factor X present in plasma is activated by a protease from rattlesnake toxin. The factor Xa activity or its inhibition by potential inhibitors is then measured by addition of a chromogenic substrate.
Various concentrations of the substances to be tested are dissolved in dimethyl sulphoxide and mixed with an aqueous refludan solution (10 μg/ml). In clear 96-well plates having a flat bottom, 30 μl of citrate plasma (Octapharma) are mixed with 10 μl of the substance dilution.

| Compound | IC50 [1] | IC50 [2] |
| --- | --- | --- |
| Cc1cc(N2C[C@H](CNC(=O)c3ccc(Cl)s3)OC2=O)ccc1-n1cccc(OCCN[C@H]2CC[C@H](O)CC2)c1=O [Example 21, 5-Chloro-N-{[(5S)-3-{4-[3-{2-[(trans-4-hydroxycyclohexyl)amino]ethoxy}-2-oxopyridin-1(2H)-yl]-3-methylphenyl}-2-oxo-1,3-oxazolidin-5-yl]methyl}thiophene-2-carboxamide] | 34 nM | 11 nM |
| COCc1cc(N2C[C@H](CNC(=O)c3ccc(Cl)s3)OC2=O)ccc1-n1cccc(CCN2CCN(C)CC2)c1=O [Example 13] | 16 nM | 17 nM |
| COc1cc(N2C[C@H](CNC(=O)c3ccc(Cl)s3)OC2=O)ccc1-n1cccc(CCN[C@H]2CC[C@H](O)CC2)c1=O [Example 6, 5-Chloro-N-{[(5S)-3-{4-[3-{2-[(trans-4-hydroxycyclohexyl)amino]ethyl}-2-oxopyridin-1(2H)-yl]-3-methoxyphenyl}-2-oxo-1,3-oxazolidin-5-yl]methyl}thiophene-2-carboxamide] | 143 nM | 31 nM |
| Cc1cc(N2C[C@H](CNC(=O)c3ccc(Cl)s3)OC2=O)cc(C)c1-n1cccc(CCNCCO)c1=O [Example 37, 5-Chloro-N-{[(5S)-3-{4-[3-{2-[(2-hydroxyethyl)amino]ethyl}-2-oxopyridin-1(2H)-yl]-3,5-dimethylphenyl}-2-oxo-1,3-oxazolidin-5-yl]methyl}thiophene-2-carboxamide] | 15 nM | 29 nM |
| CCCc1cc(N2C[C@H](CNC(=O)c3ccc(Cl)s3)OC2=O)ccc1-n1cccc(OCCNCCO)c1=O [Example 36, 5-Chloro-N-{[(5S)-3-{4-[3-{2-[(2-hydroxyethyl)amino]ethoxy}-2-oxopyridin-1(2H)-yl]-3-propyl-phenyl}-2-oxo-1,3-oxazolidin-5-yl]methyl}thiophene-2-carboxamide] | 36 nM | 29 nM |
| COCc1cc(N2C[C@H](CNC(=O)c3ccc(Cl)s3)OC2=O)ccc1-n1cccc(CCNCCCO)c1=O [Example 16] | 10 nM | 18 nM |
| COCc1cc(N2C[C@H](CNC(=O)c3ccc(Cl)s3)OC2=O)ccc1-n1cccc(CCN[C@H]2CC[C@H](O)CC2)c1=O [Example 10, 5-Chloro-N-{[(5S)-3-{4-[3-{2-[(trans-4-hydroxycyclohexyl)amino]ethyl}-2-oxopyridin-1(2H)-yl]-3-(methoxymethyl)phenyl}-2-oxo-1,3-oxazolidin-5-yl]methyl}thiophene-2-carboxamide] | 24 nM | 15 nM |
| COCc1cc(N2C[C@H](CNC(=O)c3ccc(Cl)s3)OC2=O)ccc1-n1cccc(CCNCCO)c1=O [Example 9, 5-Chloro-N-{[(5S)-3-{4-[3-{2-[(2-hydroxyethyl)amino]ethyl}-2-oxopyridin-1(2H)-yl]-3-(methoxy-methyl)phenyl}-2-oxo-1,3-oxazolidin-5-yl]methyl}thiophene-2-carboxamide] | 10 nM | 11 nM |
